Test system: HBV
Assay: HBV inhibition assay in HepAD38 cells (extracellular HBV DNA by direct qPCR)
Format: cell-based, Hepatitis B virus
Settings: 96 hours; for inhibition at 0.1 µM / EC50: Hepatitis B virus; for inhibition at 0.1 µM / Anti HBV Activity (conc μM): relative to non-treated reference; for inhibition at 0.1 µM: read-out: Anti HBV Activity (conc μM); for EC50: 8-point dose-response curve, read-out: HBV inh EC50

Cn1cc2c(c1C(=O)Nc1cc(F)c(F)c(F)c1)OCC1CN(C(=O)CO)CC1NS2(=O)=O (stereo not drawn) [Example E71, cis-2-(2-hydroxyacetyl)-7-methyl-N-(3,4,5-trifluorophenyl)-2,3,3a,4,10,10a-hexahydro-1H,7H-dipyrrolo[3,4-b:3′,4′-f][1,4,5]oxathiazocine-8-carboxamide 5,5-dioxide]
inhibition at 0.1 µM (0.1 μM): < 50%

CCOC(=O)N1CC2CCOc3c(cn(C)c3C(=O)Nc3cc(F)c(F)c(F)c3)S(=O)(=O)NC2C1 (mixture of isomers) [Example E156, Cis/Trans Ethyl 7-methyl-8-((3,4,5-trifluorophenyl)carbamoyl)-1,3a,4,10,11,11a-hexahydro-7H-dipyrrolo[3,4-b:3′,4′-f][1,4,5]oxathiazocine-2(3H)-carboxylate 5,5-dioxide]
EC50: < 1000 nM

Cc1noc(N2C[C@H]3COc4c(cn(C)c4C(=O)Nc4ccc(F)c(Cl)c4)S(=O)(=O)N[C@H]3C2)n1 [Example E116, (3aR,10aR)—N-(3-chloro-4-fluorophenyl)-7-methyl-2-(3-methyl-1,2,4-oxadiazol-5-yl)-2,3,3a,4,10,10a-hexahydro-1H,7H-dipyrrolo[3,4-b:3′,4′-f][1,4,5]oxathiazocine-8-carboxamide 5,5-dioxide]
EC50: < 1000 nM

Cn1cc2c(c1C(=O)Nc1ccc(F)c(F)c1)OC[C@H]1CCC[C@@H]1NS2(=O)=O [Example E9, (5aS,8aS)—N-(3,4-difluorophenyl)-2-methyl-5a,6,7,8,8a,9-hexahydro-2H,5H-cyclopenta[f]pyrrolo[3,4-b][1,4,5]oxathiazocine-1-carboxamide 4,4-dioxide]
EC50: < 1000 nM

CCOC(=O)N1CC2COc3c(cn(C)c3C(=O)Nc3ccc(F)c(F)c3)S(=O)(=O)NC2C1 (single isomer, unassigned) [Example E37, Ethyl 8-((3,4-difluorophenyl)carbamoyl)-7-methyl-3a,4,10,10a-tetrahydro-1H,7H-dipyrrolo[3,4-b:3′,4′-f][1,4,5]oxathiazocine-2(3H)-carboxylate 5,5-dioxide (Chiral 3aS,10aS or 3aR,10aR - Stereochemistry unknown)]
Anti HBV Activity (conc μM) (0.05 μM): A (0.05) (HBV inhibition greater than 50% at the concentration indicated in the table)

Ethyl 8-((4-fluoro-3-methylphenyl)carbamoyl)-7-methyl-3a,4,10,10a-tetrahydro-1H,7H-dipyrrolo[3,4-b:3′,4′-f][1,4,5]oxathiazocine-2(3H)-carboxylate 5,5-dioxide (3aS,10aS) [Example E40]
Anti HBV Activity (conc μM) (0.1 μM): B (0.1) (HBV inhibition less than 50% at the concentration indicated in the table)

Cn1cc2c(c1C(=O)Nc1cc(F)c(F)c(F)c1)OCC1CN(c3ccccn3)CC1NS2(=O)=O (stereo not drawn) [Example E81, cis-7-methyl-2-(pyridin-2-yl)-N-(3,4,5-trifluorophenyl)-2,3,3a,4,10,10a-hexahydro-1H,7H-dipyrrolo[3,4-b:3′,4′-f][1,4,5]oxathiazocine-8-carboxamide 5,5-dioxide]
inhibition at 0.1 µM (0.1 μM): > 50%

Cc1nnc(C(=O)N2C[C@@H]3COc4c(cn(C)c4C(=O)Nc4ccc(F)c(C)c4)S(=O)(=O)N[C@@H]3C2)s1 (relative stereo) [Example E62, cis-N-(4-fluoro-3-methylphenyl)-7-methyl-2-(5-methyl-1,3,4-thiadiazole-2-carbonyl)-2,3,3a,4,10,10a-hexahydro-1H,7H-dipyrrolo[3,4-b:3′,4′-f][1,4,5]oxathiazocine-8-carboxamide 5,5-dioxide]
EC50: < 1000 nM

Cc1cc(NC(=O)c2c3c(cn2C)S(=O)(=O)NC2CN(C(=O)c4ccc(O)nc4)CC2CO3)ccc1F (stereo not drawn) [Example E53, cis-N-(4-fluoro-3-methylphenyl)-2-(6-hydroxynicotinoyl)-7-methyl-2,3,3a,4,10,10a-hexahydro-1H,7H-dipyrrolo[3,4-b:3′,4′-f][1,4,5]oxathiazocine-8-carboxamide 5,5-dioxide]
inhibition at 0.1 µM (0.1 μM): < 50%

Source: patent publication US11504382B2, “Tricyclic inhibitors of Hepatitis B virus” (Antios Therapeutics, Inc., priority 2018, dated 2022)
